Experimental data from article PMC5728534 (PLoS ONE, 2017).
Substitutions are numbered along the chain they refer to. Entries after “also recorded” stand apart in the source; their conditions may differ. Where two headings read alike, the source gives them in different places.

Tests used:
OCT1*1C (Phe160Leu) = molecular target: T1, OCT1*1C (Phe160Leu) (Homo sapiens, UniProt O15245); settings: 1 and 10 μM ranitidine, 2 min
T1 sequence (O15245 1-554): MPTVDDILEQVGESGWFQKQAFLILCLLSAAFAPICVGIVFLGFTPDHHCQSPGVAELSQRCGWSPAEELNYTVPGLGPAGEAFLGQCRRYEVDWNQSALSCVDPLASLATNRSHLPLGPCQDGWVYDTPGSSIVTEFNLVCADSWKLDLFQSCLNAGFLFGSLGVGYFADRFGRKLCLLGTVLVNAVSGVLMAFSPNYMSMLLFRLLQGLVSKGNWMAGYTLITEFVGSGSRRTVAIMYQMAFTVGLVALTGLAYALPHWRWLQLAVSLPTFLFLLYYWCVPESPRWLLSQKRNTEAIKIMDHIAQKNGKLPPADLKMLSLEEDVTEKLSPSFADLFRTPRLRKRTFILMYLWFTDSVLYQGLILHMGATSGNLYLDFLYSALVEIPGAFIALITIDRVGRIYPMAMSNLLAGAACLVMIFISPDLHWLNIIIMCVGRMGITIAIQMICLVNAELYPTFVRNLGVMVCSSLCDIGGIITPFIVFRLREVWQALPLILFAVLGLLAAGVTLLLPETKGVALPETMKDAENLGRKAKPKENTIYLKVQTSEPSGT
Source text: (§1) HEK293 or CHO cells overexpressing the human OCT1 alleles *1A (characterized by the amino acid substitution Met408Val), *1B, *1C (Phe160Leu), *1D (Pro341Leu/Met408Val), *2 (Met420del), *3 (Arg61Cys), *4 (Gly401Ser), *5 (Gly465Arg/Met420del), *6 (Cys88Arg/Met420del), *7 (Ser14Phe), *8A (Arg488Met), *8B (Arg488Met/Met408Val), *9 (Pro117Leu), *10 (Ser189Leu), *11 (Ile449Thr), *12 (Ser29Leu), or *13 (Thr245Met), the human OCT2 reference and variant alleles (Ala270Ser), human OCT3, and the control cells (transfected with the empty pcDNA5 vector) were generated by targeted chromosomal integration using the Flp-In™ System (Life Technologies, Darmstadt, Germany).
(§2) Six hundred thousand HEK293 or CHO cells were plated per well in 12-well plates (pre-coated with poly-D-lysine) and were grown for 48 hours to reach confluence. Cells were kept at 37°C and 5% CO2 in DMEM (HEK293) or RPMI (CHO), supplemented with 10% FCS, 100 U/ml penicillin, and 100 μg/ml streptomycin. Uptake experiments were performed at pH 7.4 using HBSS supplemented with 10 mM HEPES buffer (herein referred to as HBSS+). […]
(§3) For all transport measurements, the intracellular amount of substrate was normalized to the total amount of protein of the sample as measured using the bicinchoninic acid assay [49].
(§4) For quantification of intracellular substrates, the cell debris were removed by centrifugation at 17,000 x g for 10 min. […]

[1] = cited from earlier work
[2] = physiological pH of 7.4; no reference given; cited from earlier work
[3] = parameters: method as in ref 5 = [5]; 5 Inc. G. PrZANTAC ® [product monograph]. Canada: GlaxoSmithKline Inc.; 2015 [updated 15.01.2015; cited 2016 21.10.2016].; settings: long-term toxicity tests in animals; cited from earlier work
[4] = molecular target: T2, OCT1*5 (Gly465Arg/Met420del) (Homo sapiens, UniProt O15245, DEL420-420/G465R/L160F); assay: Ranitidine uptake in HEK293 cells overexpressing OCT1*5; format: in vitro ADME; settings: 1 μM and 10 μM ranitidine, 2 min
T2 construct: expressed in transfected cells; host or cells: HEK293 T-REx (Flp-In)
T2 sequence (O15245 with tags, fused parts or gaps L160F/DEL420-420/G465R): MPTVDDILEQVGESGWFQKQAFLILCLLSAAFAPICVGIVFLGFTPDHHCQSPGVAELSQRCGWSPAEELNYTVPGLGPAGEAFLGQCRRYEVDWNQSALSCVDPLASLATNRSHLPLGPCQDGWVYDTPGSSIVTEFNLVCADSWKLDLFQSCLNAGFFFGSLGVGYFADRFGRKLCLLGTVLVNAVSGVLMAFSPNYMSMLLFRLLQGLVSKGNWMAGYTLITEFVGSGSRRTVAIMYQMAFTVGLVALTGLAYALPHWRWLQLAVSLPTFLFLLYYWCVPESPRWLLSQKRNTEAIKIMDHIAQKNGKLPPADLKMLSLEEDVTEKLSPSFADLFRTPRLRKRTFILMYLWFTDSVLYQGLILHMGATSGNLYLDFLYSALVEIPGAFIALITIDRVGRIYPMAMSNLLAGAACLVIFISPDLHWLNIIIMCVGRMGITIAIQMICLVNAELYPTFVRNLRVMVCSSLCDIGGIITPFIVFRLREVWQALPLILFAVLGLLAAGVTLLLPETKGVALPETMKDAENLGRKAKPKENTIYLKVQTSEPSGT
Source text: as §1, §2, §3, §4

OCT1*1 = molecular target: T3, OCT1*1 (Homo sapiens, UniProt O15245, L160F); assay: Inhibition by ranitidine of OCT1-mediated substrate uptake, reference allele, HEK293 cells; format: cell-based; settings: for inhibition at 2 min: human, HEK293 cells overexpressing OCT1*1 (reference allele); for IC50: OCT1*1, 2 min, HEK293
T3 construct: expressed in transfected cells; host or cells: HEK293 T-REx (Flp-In)
T3 sequence (O15245 1-554 L160F): T1 sequence (O15245 1-554) with L160F
Source text: as §1
Cells were kept at 37°C and 5% CO2 in DMEM (HEK293) or RPMI (CHO), supplemented with 10% FCS, 100 U/ml penicillin, and 100 μg/ml streptomycin. Uptake experiments were performed at pH 7.4 using HBSS supplemented with 10 mM HEPES buffer (herein referred to as HBSS+). Cells were washed once with 1 ml pre-warmed HBSS+ buffer (37°C). […] Cells were washed twice with 2 ml ice-cold HBSS+ and lysed in 500 μl lysis buffer.
The intracellular concentration of MPP^+ was determined using liquid scintillation counting of radioactively labeled substrate. To this end, 400 μl cell lysate was measured with 9 ml Aquasafe Plus liquid scintillator using the Scintillation Counter LS6500 (Beckman Coulter, Krefeld, Germany). Intracellular ASP^+ concentrations were determined using fluorescence spectroscopy.
as §3
For quantification of intracellular substrates, the cell debris were removed by centrifugation at 17,000 x g for 10 min. Four-hundred μl of the supernatant was evaporated to dryness under nitrogen flow at 40°C. The residue was reconstituted in 200 μl 0.1% formic acid and 10 μl were injected into the LC-MS/MS. For the LC-MS/MS analysis an API 4000™ system tandem mass spectrometer (AB SCIEX, Darmstadt, Germany) was used. Samples were separated using a Brownlee SPP RP-Amide Column (4.6x100 mm, 2.7 μm; PerkinElmer), with a SecurityGuard C18, 4x2 mm pre-column (Phenomenex, Aschaffenburg, Germany).
Nonlinear regression to the Michaelis-Menten equation was performed to determine Km and vmax using GraphPad Prism version 6 (GraphPad Software Inc., La Jolla, CA, USA). Nonlinear regression to the Hill equation v = vmin+(vmax-vmin)/1+([I]/IC50)^-Hillslope was performed to determine IC50 using SigmaPlot version 12.0 (Systat Software, San Jose, California, USA).

OCT1*12 (Ser29Leu) = molecular target: T4, OCT1*12 (Ser29Leu) (Homo sapiens, UniProt O15245, L160F/S29L); assay: Ranitidine uptake in HEK293 cells overexpressing OCT1*12; format: in vitro ADME; settings: 1 μM and 10 μM ranitidine, 2 min
T4 construct: expressed in transfected cells; host or cells: HEK293 T-REx (Flp-In)
T4 sequence (O15245 1-554 S29L/L160F): T1 sequence (O15245 1-554) with S29L, L160F
Source text: as §1, §2, §3, §4

CNC(=C[N+](=O)[O-])NCCSCc1ccc(CN(C)C)o1 [ranitidine, Ranitidine]
uptake of ranitidine compared to the reference allele (OCT1*1C (Phe160Leu)): no significant difference | portion eliminated unchanged via renal excretion ([1]; after oral administration): approximately half | oral bioavailability [1]: 50–60% | time to maximal plasma concentrations after administration [1]: two to three | [I]1, mean unbound ranitidine steady state total Cmax ([1]; highest clinical dose (300 mg)): 2200 nM | bioavailability in hepatic dysfunction ([1]; increase from 50%): 70% | volume of distribution ([1]; no reference given): ~1.4 L/kg | ranitidine molecules that are positively charged organic cations [2]: 86% | plasma concentrations exceeding the human maximal plasma concentration without significant adverse reactions [3]: 50 fold | ranitidine transport activity [4]: completely lacked ranitidine uptake; also recorded: complete lack of ranitidine transport activity | induction of morphine uptake (OCT1*1; at Cmax of ranitidine, reference allele only, not in OCT1*2): 41% | inhibition at 2 min (OCT1*1; pH 7.4, probe metformin (100 μM), read-out: inhibition of metformin uptake): 50% | inhibition at 2 min (OCT1*1; pH 7.4, high concentrations expected in the gastrointestinal tract, all substrates tested, reference allele, read-out: inhibition of substrate uptake): > 70% | IC50 (OCT1*1; substrate 0.1 μM MPP+): 81.9 µM | IC50 (OCT1*1; substrate 0.1 μM morphine): 45.5 ± 5.49 µM | IC50 (OCT1*1; substrate 1 μM ASP+): 337 µM | IC50 (OCT1*1; substrate 100 μM metformin): 20.9 µM | ranitidine transport activity (OCT1*12 (Ser29Leu)): completely lacked ranitidine uptake; also recorded: complete lack of ranitidine transport activity
